Test results reported in publication PMC11476342 (Cancers, 2024).

Columns and labels:
J82 cisR = experiment: MTT cell viability assay; format: cell-based, human; conditions: for IC50: Homo sapiens, 72 h, MTT, compound alone, read-out: IC50 ± SD
Description: (§1) The cell viability for determination of IC50 values and synergism studies was analyzed by MTT assay as previously described. […] For preincubation experiments, 1600 c/w (cells per well) for J82 and 1200 c/w for J82 cisR were used. After the incubation time, 25 µL MTT (3-(4,5-dimethylthiazol-2-yl)-2,5-diphenyltetrazolium bromide, Serva, Heidelberg, Germany) solution (5 mg/mL in phosphate-buffered saline) was added. The formazan was dissolved in 75 µL DMSO, and the absorption was measured at 540 nm and 690 nm with a microplate reader (ThermoFisher Multiskan, Thermo Scientific, Wesel, Germany).

J82 = experiment: MTT cell viability assay; format: cell-based, human; conditions: for IC50: Homo sapiens, J82, 72 h, MTT, compound alone, read-out: IC50 ± SD
Description: as §1

[1] = cited from earlier work
HEK293 = experiment: MTT cell viability assay, non-cancer cell line; format: cell-based, human; conditions: Homo sapiens, HEK293; MTT, 72 h, compound alone; read-out: IC50 ± SD
Description: as §1

[2] = set-up: method as in PMID 33723398, PMID 29733771, PMID 27063977, PMID 27063978, PMID 26341814; conditions: patients; cited from earlier work
HDAC 8 = molecular target: T1, HDAC 8 (Homo sapiens, UniProt Q9BY41); experiment: Enzyme HDAC inhibition assay; format: biochemical; conditions: recombinant enzyme, Boc-Lys-(Tfa)-AMC; read-out: HDAC8 IC50 ± SD
T1 construct: purchased Reaction Biology Corp (Malvern, PA, USA) KDA-21-481
T1 sequence (Q9BY41 1-377): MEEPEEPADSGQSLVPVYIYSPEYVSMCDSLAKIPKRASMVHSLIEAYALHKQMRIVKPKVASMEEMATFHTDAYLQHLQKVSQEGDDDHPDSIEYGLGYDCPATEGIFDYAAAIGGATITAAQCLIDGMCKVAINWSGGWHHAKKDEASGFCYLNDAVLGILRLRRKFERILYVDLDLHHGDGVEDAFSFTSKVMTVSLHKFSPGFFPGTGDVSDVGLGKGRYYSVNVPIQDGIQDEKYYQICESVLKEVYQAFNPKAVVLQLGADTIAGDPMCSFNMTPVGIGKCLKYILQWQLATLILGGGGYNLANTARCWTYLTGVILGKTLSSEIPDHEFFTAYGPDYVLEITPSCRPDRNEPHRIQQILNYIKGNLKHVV
From the text: (§2) The human recombinant enzymes were ordered from Reaction Biology Corp (Malvern, PA, USA).

HDAC 4 = molecular target: T2, HDAC 4 (Homo sapiens, UniProt P56524); experiment: Enzyme HDAC inhibition assay; format: biochemical; conditions: recombinant enzyme, Boc-Lys-(Tfa)-AMC; read-out: HDAC4 IC50 ± SD
T2 construct: purchased Reaction Biology Corp (Malvern, PA, USA) KDA-21-279
T2 sequence (P56524 whole entry): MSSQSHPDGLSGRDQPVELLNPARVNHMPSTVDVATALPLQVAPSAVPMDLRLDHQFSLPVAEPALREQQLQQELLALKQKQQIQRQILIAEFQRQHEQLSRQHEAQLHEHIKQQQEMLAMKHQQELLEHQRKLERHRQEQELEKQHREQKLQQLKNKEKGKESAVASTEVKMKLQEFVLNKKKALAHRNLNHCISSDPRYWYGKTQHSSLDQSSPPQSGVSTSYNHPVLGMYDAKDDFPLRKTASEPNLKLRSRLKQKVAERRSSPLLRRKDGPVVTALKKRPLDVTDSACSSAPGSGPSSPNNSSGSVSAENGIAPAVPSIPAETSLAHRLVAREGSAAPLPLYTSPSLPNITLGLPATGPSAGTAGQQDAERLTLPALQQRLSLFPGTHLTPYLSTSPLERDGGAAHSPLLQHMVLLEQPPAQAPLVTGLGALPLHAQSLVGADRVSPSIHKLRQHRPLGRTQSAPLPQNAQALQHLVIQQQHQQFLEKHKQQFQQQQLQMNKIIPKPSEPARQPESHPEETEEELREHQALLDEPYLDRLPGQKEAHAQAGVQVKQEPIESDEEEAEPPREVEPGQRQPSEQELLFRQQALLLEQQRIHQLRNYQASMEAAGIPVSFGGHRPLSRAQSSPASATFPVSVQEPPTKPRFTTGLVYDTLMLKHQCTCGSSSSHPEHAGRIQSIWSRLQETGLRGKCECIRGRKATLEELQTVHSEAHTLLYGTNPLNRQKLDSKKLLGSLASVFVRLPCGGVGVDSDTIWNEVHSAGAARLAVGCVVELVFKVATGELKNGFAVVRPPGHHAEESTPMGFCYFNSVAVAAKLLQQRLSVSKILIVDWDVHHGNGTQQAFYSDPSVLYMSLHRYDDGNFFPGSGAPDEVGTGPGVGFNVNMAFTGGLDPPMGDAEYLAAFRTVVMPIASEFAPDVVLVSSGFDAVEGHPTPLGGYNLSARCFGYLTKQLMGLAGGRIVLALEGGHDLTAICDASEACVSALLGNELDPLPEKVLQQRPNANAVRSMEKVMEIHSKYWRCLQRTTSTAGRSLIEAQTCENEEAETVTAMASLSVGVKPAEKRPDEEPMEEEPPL
From the text: as §2

caspase 3/7 = experiment: Activation of caspase 3/7 (CellEvent, high content screening); format: cell-based, human; conditions: single treatment, all four cell lines (J82, J82 cisR, T24, T24 LTT)
Description: Activation of caspase 3/7 was examined using the CellEvent Caspase-3/7 green detection reagent (Thermo Scientific, Wesel, Germany) according to the manufacturer’s instructions. The cells were seeded in 96-well-plates (Corning, Kaiserslautern, Germany) and treated with the indicated compounds for 48 h (J82 1600 c/w; J82 cisR 800 c/w; T24 1200 c/w; T24 LTT 3000 c/w). […] The supernatant was aspirated and a solution of CellEvent Caspase 3/7 green detection reagent (PBS, 1% heat inactivated fetal calf serum) was added to the cells for a final concentration of 2 µM. Hoechst 33342 (10 mg/mL in water, Sigma-Aldrich, Steinheim, Germany) was used for nuclei staining. The cells were incubated for 30 min at 37 °C and 5% CO2 before imaging by using the Thermo Fischer ArrayScan XTI high content screening (HCS) system with a 10 × magnification (Thermo Scientific, Wesel, Germany).

T24 = experiment: MTT cell viability assay; format: cell-based, human
Description: as §1

T24 LTT = experiment: MTT cell viability assay; format: cell-based, human
Description: as §1

BRDs = system: BRDs; set-up: method as in PMID 34582215; conditions: cited from earlier work
HDAC 1-3 and 6 = system: HDAC 1-3 and 6; set-up: method as in PMID 34582215; conditions: cited from earlier work
[3] = 7.5 µM of 20, without cisplatin (Figure 10, S17)

| Compound | IC50 (J82 cisR) [nM] | IC50 (J82; 72 h) [µM] | fold-increased IC50 value compared to JQ1 (J82; J82, MTT, 72 h) [fold] | bioavailability ([1]; OTX015: oral, in contrast to JQ1) | half-life ([1]; in vivo, OTX015 in contrast to JQ1) | IC50 (HEK293) [nM] | dose-limiting toxicities [2] | IC50 (HDAC 8) [µM] | IC50 (HDAC 4) [µM] | caspase 3/7 activation (caspase 3/7) | decrease in cell viability (J82 cisR; [3]) | decrease in cell viability (T24; [3]) | IC50 (T24; Homo sapiens, T-24, MTT, 72 h, compound alone, read-out: IC50 ± SD) [µM] | decrease in cell viability (T24 LTT; [3]) | IC50 (T24 LTT; Homo sapiens, MTT, 72 h, compound alone, read-out: IC50 ± SD) [µM] | decrease in cell viability (J82; [3]) | inhibitory activity to BRDs (BRDs) | inhibitory activity against HDAC 1-3 and 6 (HDAC 1-3 and 6) |
| --- | --- | --- | --- | --- | --- | --- | --- | --- | --- | --- | --- | --- | --- | --- | --- | --- | --- | --- |
| Cc1sc2c(c1C)C(c1ccc(Cl)cc1)=NC(CC(=O)NCCCN1CCN(C)CC1)c1nnc(C)n1-2 (stereo not shown) [JQ35] | 1490 ± 340 | 69.5 ± 7.88 | 3.7 | – | – | – | – | – | – | – | – | – | – | – | – | – | – | – |
| Cc1sc2c(c1C)C(c1ccc(Cl)cc1)=N[C@@H](CC(=O)Nc1ccc(O)cc1)c1nnc(C)n1-2 [OTX015] | 1040 ± 130 | 18.9 ± 2.82 | – | better | extended | 1980 ± 420 | anemia, thrombocytopenia, fatigue, and hyperbilirubinemia | – | – | – | – | – | – | – | – | – | – | – |
| CCc1c(C(=O)Nc2cc(/C=C/C(=O)NO)ccc2OC)[nH]c(C)c1C(C)=O [compound 20] | 7000 ± 490 | 7.17 ± 0.57 | – | – | – | – | – | 6.03 | 207 | only weakly activated | 60–70% | 60–70% | 6.95 ± 0.54 | 60–70% | 4.66 ± 0.41 | 60–70% | single-digit micromolar range | sub-micromolar |
